Read-outs that look alike come from different tables or passages of the source.
Experiments:
TxA2 synthesis = TxA2 synthesis inhibiting action test (human blood platelet microsomes); assay type: biochemical; conditions: prostaglandin H2
Protocol: TxA2 Synthesis Inhibiting Action Test
One ml of a buffer (20 mM Tris-HCl buffer, 1 mM EDTA, pH 7.5) containing human blood platelet microsomes (50 μg protein/ml) and the test compound (final concentration 10^-7 M) was agitated, then incubated at 0° C. for 30 minutes. To this was added prostaglandin H2 (100 ng/2 μl). This was incubated at 23° C. for 3 minutes to cause a reaction. Next, 1M hydrochloric acid was added to make the solution acidic and stop the reaction, then this was neutralized by 1M Tris-Base and centrifuged at 3000 rpm for 20 minutes. The amount of the TxB2 in the supernatant was measured by the EIA method (Cayman Co. kit).

[1] = system: VCR resistant murine leukemia (P388/VCR) cells; assay: In vivo effect for overcoming resistance to vincristine in VCR resistant murine leukemia (P388/VCR) bearing mice; set-up: species or system CDF1 male mice
Text: In vivo test of action suppressing proliferation of cancer cells by concomitant use with anti-cancer drug
The number of survival days were found and the life prolonging rate (T/C) with respect to the controls was found. The effect in overcoming resistance to an anti-cancer drug (T/V) was found by the following formula.
Effect for overcoming resistance to an anti-cancer drug (T/V) %
=[Life prolonging rate (T/C) in case of concomitant use of VCR and the compound of the present invention]/[Life prolonging rate (T/C) in case of VCR alone]×100
Using Compound 18 to Compound 22 and Compound 32, the same procedure was followed as in Test Example 5 to find the effect for overcoming resistance to an anti-cancer drug in vincristine (VCR) resistant murine leukemia cell bearing mice.

[2] = system: KCl contraction in rat arteries (thoracic aorta); assay: Action easing KCl contraction in rat arteries (thoracic aorta ring); conditions: read-out: IC50 value (50% inhibitory concentration of hyperpotassium contraction), Test Example 7, Table 7, 37° C.
Protocol: Action easing KCl contraction in rat arteries
The specimen was stabilized for approximately 60 minutes, then a potassium chloride solution was added to the Magnus tube to give a final concentration of […]. The positive control compound or the compound of the present invention was cumulatively added from 1×10^-10 M to 1×10^-4 M when the contraction reaction occurring at that time reached equilibrium. The contraction force was recorded by an FD-pickup (made by Nihon Kodensha) via a polygraph (made by Nihon Kodensha).

[3] = system: KCl contraction in rat arteries (thoracic aorta); assay: as above; conditions: read-out: IC50 value (50% inhibitory concentration of hypercalcemic contraction), Test Example 8, Table 8
[4] = Test Example 5, Table 5, T/C with VCR + compound over T/C with VCR alone ×100
[5] = Test Example 5, Table 5, VCR 100 μg/kg i.p. 5 days with compound 100 mg/kg (verapamil 60, nicardipine 75 mg/kg)
[6] = Test Example 6, Table 6, same procedure as Test Example 5

SMILES: CC1=C(C(=O)OCCCc2cccnc2)C(C(C)C)C(C(=O)OCCN2CCN(Cc3cccnc3)CC2)=C(C)N1 (centres unmarked) [Compound 28, 2,6-dimethyl-4-isopropyl-1,4-dihydropyridine-3,5-dicarboxylic acid 3-[2-(4-(3-pyridylmethyl)piperazin-1-yl)ethyl]ester, 5-[3-(3-pyridyl)propyl]ester]
- TxA2 synthesis inhibiting action Rate of suppression at 10^-7 mol (%) (TxA2 synthesis): 60.2%

SMILES: COc1ccc(CCN(C)CCCC(C#N)(c2ccc(OC)c(OC)c2)C(C)C)cc1OC (centres unmarked) [Verapamil, verapamil, reference compound]
- Effect for overcoming resistance T/V (%) [1, 4]: 127%
- Life prolonging rate T/C (%) [1, 5]: 136%
- Mean days of survival [1, 5]: 13.6 days
- IC50 [2]: 2.35 µM

SMILES: CC1=C(C(=O)OCCCc2cccnc2)CC(C(=O)OCCCc2cccnc2)=C(C)N1 [Control 1, reference compound]
- TxA2 synthesis inhibiting action Rate of suppression at 10^-7 mol (%) (TxA2 synthesis): 74.7%

SMILES: CCCC1C(C(=O)OCCCc2cccnc2)=C(C)NC(C)=C1C(=O)OCCCc1cccnc1 [Compound 2, 2,6-dimethyl-4-n-propyl-1,4-dihydropyridine-3,5-dicarboxylic acid bis[3-(3-pyridyl)propyl]ester]
- IC50 [2]: > 30 µM
- TxA2 synthesis inhibiting action Rate of suppression at 10^-7 mol (%) (TxA2 synthesis): 72.0%

SMILES: CC(C)=CCCC(C)CC1C(C(=O)OCCCc2cccnc2)=C(C)NC(C)=C1C(=O)OCCCc1cccnc1 (centres unmarked) [Compound 11, 2,6-dimethyl-4-(2,6-dimethyl-5-heptenyl)-1,4-dihydropyridine-3,5-dicarboxylic acid bis[3-(3-pyridyl)propyl]ester]
- Effect for overcoming resistance T/V (%) [1, 4]: 128%
- Life prolonging rate T/C (%) [1, 5]: 137%
- Mean days of survival [1, 5]: 13.7 days
- IC50 [2]: > 30 µM

SMILES: CCC(C)C1C(C(=O)OCCCc2cccnc2)=C(C)NC(C)=C1C(=O)OCCCc1cccnc1 (centres unmarked) [Compound 19, 2,6-dimethyl-4-(1-methylpropyl)-1,4-dihydropyridine-3,5-dicarboxylic acid bis[3-(3-pyridyl)propyl]ester]
- Effect for overcoming resistance T/V (%) [1, 6]: 173%
- Life prolonging rate T/C (%) [1, 6]: 176%
- Mean days of survival [1, 6]: 18.8 days

SMILES: COCCOC(=O)C1=C(C)NC(C)=C(C(=O)OC(C)C)C1c1cccc([N+](=O)[O-])c1 (centres unmarked) [Nimodipine, reference compound]
- IC50 [2]: 0.08 µM

SMILES: CC1=C(C(=O)OCCCCc2cccnc2)C(C(C)C)C(C(=O)OCCCCc2cccnc2)=C(C)N1 [Compound 30, 2,6-dimethyl-4-isopropyl-1,4-dihydropyridine-3,5-dicarboxylic acid bis[4-(3-pyridyl)butyl]ester]
- TxA2 synthesis inhibiting action Rate of suppression at 10^-7 mol (%) (TxA2 synthesis): 69.7%

SMILES: O=C(O)/C=C/c1ccc(Cn2ccnc2)cc1 [OKY-046, reference compound]
- TxA2 synthesis inhibiting action Rate of suppression at 10^-7 mol (%) (TxA2 synthesis): 86.4%

SMILES: CC1=C(C(=O)OCCCc2cccnc2)C(C2CCCCC2)C(C(=O)OCCCc2cccnc2)=C(C)N1 [Compound 8, 2,6-dimethyl-4-cyclohexyl-1,4-dihydropyridine-3,5-dicarboxylic acid bis[3-(3-pyridyl)propyl]ester]
- TxA2 synthesis inhibiting action Rate of suppression at 10^-7 mol (%) (TxA2 synthesis): 63.0%

SMILES: CCOC(=O)C1CC1C1C(C(=O)OCCCc2cccnc2)=C(C)NC(C)=C1C(=O)OCCCc1cccnc1 (centres unmarked) [Compound 9, 2,6-dimethyl-4-(2-ethoxycarbonylcyclopropyl)-1,4-dihydropyridine-3,5-dicarboxylic acid bis[3-(3-pyridyl)propy]ester]
- IC50 [2]: 11.5 µM

SMILES: CC1=C(C(=O)OCc2cccnc2)C(c2ccccc2[N+](=O)[O-])C(C(=O)OCc2cccnc2)=C(C)N1 [Control 2, reference compound]
- TxA2 synthesis inhibiting action Rate of suppression at 10^-7 mol (%) (TxA2 synthesis): 77.9%

SMILES: CCCCCCCCC1C(C(=O)OCCC#N)=C(C)NC(C)=C1C(=O)OCCCc1cccnc1 (centres unmarked) [Compound 14, 2,6-dimethyl-4-n-octyl-1,4-dihydropyridine-3,5-dicarboxylic acid 3-(2-cyanoethyl) ester, 5-[3-(3-pyridyl)propyl]ester]
- IC50 [3]: 8.4 µM

SMILES: CC1=C(C(=O)OCCCc2cccnc2)C(C=Cc2ccco2)C(C(=O)OCCCc2cccnc2)=C(C)N1 [Compound 10, 2,6-dimethyl-4-(2-(2-furyl)ethenyl)-1,4-dihydropyridine-3,5-dicarboxylic acid bis[3-(3-pyridyl)propyl]ester]
- IC50 [2]: > 30 µM

SMILES: CC1=C(C(=O)OCCCc2cccnc2)C(c2ccc(C(=O)O)cc2)C(C(=O)OCCCc2cccnc2)=C(C)N1 [Control 3, reference compound]
- TxA2 synthesis inhibiting action Rate of suppression at 10^-7 mol (%) (TxA2 synthesis): 37.6%

SMILES: CCCCC(CC)C1C(C(=O)OCCCc2cccnc2)=C(C)NC(C)=C1C(=O)OCCCc1cccnc1 (centres unmarked) [Compound 21, 2,6-dimethyl-4-(1-ethylpentyl)-1,4-dihydropyridine-3,5-dicarboxylic acid bis[3-(3-pyridyl)propyl]ester]
- Effect for overcoming resistance T/V (%) [1, 6]: 138%
- Life prolonging rate T/C (%) [1, 6]: 140%
- Mean days of survival [1, 6]: 15.0 days
- IC50 [3]: 7 µM

SMILES: CC1=C(C(=O)OCCCc2cccnc2)C(CC(C)(C)C)C(C(=O)OCCCc2cccnc2)=C(C)N1 [Compound 4, 2,6-dimethyl-4-(2,2-dimethylpropyl)-1,4-dihydropyridine-3,5-dicarboxylic acid bis[3-(3-pyridyl)propyl]ester]
- Effect for overcoming resistance T/V (%) [1, 4]: 136%
- Life prolonging rate T/C (%) [1, 5]: 145%
- Mean days of survival [1, 5]: 14.5 days
- IC50 [2]: 20.5 µM
- TxA2 synthesis inhibiting action Rate of suppression at 10^-7 mol (%) (TxA2 synthesis): 49.1%

SMILES: CC1=C(C(=O)OCCCc2cccnc2)C(C(C)c2ccccc2)C(C(=O)OCCCc2cccnc2)=C(C)N1 (centres unmarked) [Compound 7, 2,6-dimethyl-4-(1-phenylethyl)-1,4-dihydropyridine-3,5-dicarboxylic acid bis[3-(3-pyridyl)propyl]ester]
- IC50 [2]: 13 µM

SMILES: CCCCCC#CC1C(C(=O)OCCCc2cccnc2)=C(C)NC(C)=C1C(=O)OCCCc1cccnc1 [Compound 32, 2,6-dimethyl-4-(1-heptynyl)-1,4-dihydropyridine-3,5-dicarboxylic acid bis[3-(3-pyridyl)propyl]ester]
- Effect for overcoming resistance T/V (%) [1, 6]: 133%
- Life prolonging rate T/C (%) [1, 6]: 136%
- Mean days of survival [1, 6]: 14.5 days
- IC50 [3]: 10.5 µM

SMILES: CC1=C(C(=O)OCCCc2cccnc2)C(CC2CCCC(C)(C)C2)C(C(=O)OCCCc2cccnc2)=C(C)N1 (centres unmarked) [Compound 33, 2,6-dimethyl-4-(3,3-dimethylcyclohexylmethyl)-1,4-dihydropyridine-3,5-dicarboxylic acid bis[3-(3-pyridyl)propyl]ester]
- IC50 [3]: 6.2 µM

SMILES: CCCCCCCCC1C(C(=O)OCCN2CCN(Cc3cccnc3)CC2)=C(C)NC(C)=C1C(=O)OCCN1CCN(Cc2cccnc2)CC1 [Compound 23, 2,6-dimethyl-4-n-octyl-1,4-dihydropyridine-3,5-dicarboxylic acid bis[2-(4-(3-pyridylmethyl)piperazin-1-yl)ethyl]ester]
- Effect for overcoming resistance T/V (%) [1, 4]: 123%
- Life prolonging rate T/C (%) [1, 5]: 132%
- Mean days of survival [1, 5]: 13.2 days

SMILES: CCC(CC)C1C(C(=O)OCCCc2cccnc2)=C(C)NC(C)=C1C(=O)OCCCc1cccnc1 [Compound 20, 2,6-dimethyl-4-(1-ethylpropyl)-1,4-dihydropyridine-3,5-dicarboxylic acid bis[3-(3-pyridyl)propyl]ester]
- Effect for overcoming resistance T/V (%) [1, 6]: 150%
- Life prolonging rate T/C (%) [1, 6]: 148%
- Mean days of survival [1, 6]: 15.8 days
- IC50 [3]: 4.2 µM

SMILES: CC1=C(C(=O)OCCCc2cccnc2)C(CCc2ccccc2)C(C(=O)OCCCc2cccnc2)=C(C)N1 [Compound 12, 2,6-dimethyl-4-(2-phenylethyl)-1,4-dihydropyridine-3,5-dicarboxylic acid bis[3-(3-pyridyl)propyl]ester]
- IC50 [2]: > 30 µM
